Laboratory results reported in patent US11180771B2 (priority 2016, dated 2021).

Tests used:
[1] = system: weeds (all species): Echinochloa species, Schoenoplectus mucronatus, Cypres difformis, Heteranthera limosa, Monochoria vaginalis; experiment: Preflood oxyfluorfen rate test in water-seeded production system (Table 5), percent weeds; type: in vivo; details: treatments before flooding; mutant lines containing ROXY
Protocol: Oxyfluorfen resistant rice lines containing mutant allele ROXY, including 17Y3000, 14G3, 14G4, and 15G4, and the oxyfluorfen susceptible parent M-206 were tested at different rates of oxyfluorfen applied preflood in a water-seeded production system to assess seedling vigor, percent weeds, and yield as shown in Table 5. The design was a randomized complete block with 4 replication and 4 rates of oxyfluorfen (GoalTender®) herbicide. The plot size was 10×20 ft. The percent weeds (all species) were visually determined at 50 days after seeding in the plots and the plots were harvested at maturity. The weed species included a mixture of predominant weeds present including barnyard and late watergrass Echinochloa species, rice field bulrush Schoenoplectus mucronatus, small flower umbrella Cypres difformis, ducksalad Heteranthera limosa, and monochoria Monochoria vaginalis.

[2] = system: weeds (all species): Echinochloa species, Schoenoplectus mucronatus, Cypres difformis, Heteranthera limosa, Monochoria vaginalis; experiment: Drill-seeded herbicide treatment test (Table 6), percent weeds; type: in vivo; details: including combinations with Prowl and Clincher, lines with mutant ROXY allele
Protocol: Oxyfluorfen resistant rice lines containing mutant allele ROXY, including 17Y3000, 14G3, 14G4, and 15G4, and the oxyfluorfen susceptible parent M-206 without ROXY were tested by applying oxyfluorfen at different rates and times, and in combination with other herbicides in a drill-seeded production system and evaluated for percent weeds and yield as shown in Table 6. Preflush applications were made directly after drill-seeding just before the first irrigation of the basin and preflood applications occurred just before a permanent flood of basin at about 25 days after seeding. The design was a randomized complete block with 2 replication and treatments of oxyfluorfen (GoalTender®) and combinations of oxyfluorfen with the herbicides Prowl® and Clincher®. The active ingredient of Prowl® is pendimethalin (N-(1-ethylpropyl)-3,4-dimethyl-2,6-dinitrobenzenamine). Clincher® is an herbicide for selective postemergence grass weed control in rice with the active ingredient cyhalofop (2-[4-(4-cyano-2-fluorophenoxy) phenoxy] propanoic acid, butyl ester, (R)). The plot size was 6.4×20 ft. The percent weeds (all species) were visually determined at 50 days after seeding in the plots and the plots were harvested at maturity. […]

CCOc1cc(Oc2ccc(C(F)(F)F)cc2Cl)ccc1[N+](=O)[O-] [Oxyfluorfen, oxyfluorfen]
weed control [1]: high levels of weed control
weed control [2]: high levels of weed control
